Assay results: US6784201B2, “Benzothiepines having activity as inhibitors of ileal bile acid transport and taurocholate uptake” (G.D. Searle & Company, priority 1994, dated 2004)

These molecules were tested against T1, human IBAT (Homo sapiens, UniProt Q12908) (assay: In vitro assay of IBAT-mediated uptake of [14C]-taurocholate (TC) in H14 cells). Details: Human TC IC50.
T1 construct: expressed in transfected cells; host or cells: Baby hamster kidney (BHK) cells, clone H14
T1 sequence (Q12908 1-348): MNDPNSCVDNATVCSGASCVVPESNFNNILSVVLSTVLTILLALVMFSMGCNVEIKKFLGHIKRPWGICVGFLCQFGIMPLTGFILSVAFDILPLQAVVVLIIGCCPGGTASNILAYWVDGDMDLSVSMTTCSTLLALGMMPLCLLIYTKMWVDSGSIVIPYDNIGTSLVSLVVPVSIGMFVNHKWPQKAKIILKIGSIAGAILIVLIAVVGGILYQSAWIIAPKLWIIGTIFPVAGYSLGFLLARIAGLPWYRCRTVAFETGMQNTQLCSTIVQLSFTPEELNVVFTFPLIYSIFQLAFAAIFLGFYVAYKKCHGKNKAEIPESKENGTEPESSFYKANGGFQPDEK
Type: cell-based
Outline: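 BHK cells stably expressing human IBAT (H14) were incubated 2 h at 37° C with compound and 3 μM final [14C]-taurocholate in DMEM (4.5 g/L glucose) plus 0.2% fatty acid-free BSA. After cold PBS washes, cell-associated radioactivity was measured by scintillation counting.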
For CCCCC1(CC)CS(=O)(=O)c2ccc(N(C)C)cc2C(c2ccccc2)C1O (stereo not drawn) [Example 1159], the IC50 was 0.06 µM.

Same assay, conditions: read-out: Human TC IC50
CCCCC1(CC)CS(=O)(=O)c2ccc(N(C)C)cc2C(c2ccc(OC)cc2)C1O (stereo not drawn) [Example 1089] was tested, and the IC50 was 0.0057 µM. With CCCCC1(CCCC)CS(=O)(=O)c2ccc(N(C)C)cc2C(c2cccc(OCCOCCOCC[n+]3cccc4ccccc43)c2)C1O (stereo not drawn) [Example 1090] the IC50 was 0.006 µM. In the case of CCCCC1(CCCC)CS(=O)(=O)c2ccc(N(C)C)cc2C(c2cccc(OCCOCCOCC[N+](C)(C3CCCCC3)C3CCCCC3)c2)C1O (stereo not drawn) [Example 1091], the IC50 is reported as 0.006 µM. For CCCCC1(CCCC)CS(=O)(=O)c2ccc(N(C)C)cc2C(c2cccc(OCCOCCOCC[N+](C)(C)c3ccccc3)c2)C1O (stereo not drawn) [Example 1092], the IC50 was 0.006 µM. For CCCCC1(CCCC)CS(=O)(=O)c2ccc(N(C)C)cc2C(c2cccc(OCCOCCOCC[N+](C)(C)CC(=O)OCC)c2)C1O (stereo not drawn) [Example 1093], the IC50 was 0.006 µM. For CCCCC1(CCCC)CS(=O)(=O)c2ccc(N(C)C)cc2C(c2cccc(OCCOCCOCC[n+]3cccc(C(=O)OC)c3)c2)C1O (stereo not drawn) [Example 1094], the IC50 was 0.006 µM. Molecule CCCCC1(CCCC)CS(=O)(=O)c2ccc(N(C)C)cc2C(c2cccc(OCCOCCOCC[N+]34CCN(CC3)CC4)c2)C1O (stereo not drawn) [Example 1095] has an IC50 of 0.006 µM. Molecule CCCCC1(CCCC)CS(=O)(=O)c2ccc(N(C)C)cc2C(c2cccc(OCCOCCOCC[n+]3ccc(C)cc3)c2)C1O (stereo not drawn) [Example 1096] has an IC50 of 0.006 µM. CCCCC1(CCCC)CS(=O)(=O)c2ccc(N(C)C)cc2C(c2cccc(NC(=O)CCBr)c2)C1O (stereo not drawn) [Example 1097] was tested, and the IC50 was 0.006 µM. CCCCC1(CC)CS(=O)(=O)c2ccc(N(C)C)cc2C(c2ccc(OC)cc2)C1O (stereo not drawn) [Example 1099] was tested, and the IC50 was 0.0063 µM. CCCCC1(CCCC)CS(=O)(=O)c2ccc(N(C)C)cc2C(c2ccc(OC)cc2)C1O (stereo not drawn) [Example 1100] was tested, and the IC50 was 0.0068 µM. In the case of CCCCC1(CCCC)CS(=O)(=O)c2ccc(N(C)C)cc2C(c2ccc(OCCOCC[n+]3ccc(N(C)C)cc3)c(F)c2)C1O (stereo not drawn) [Example 1101], the IC50 is reported as 0.007 µM. For CCCCC1(CCCC)CS(=O)(=O)c2ccc(N(C)C)cc2C(c2ccc(OCCOCCOCC[N+](C)(C)CC[N+](C)(C)C)cc2)C1O (stereo not drawn) [Example 1103], the IC50 was 0.007 µM. With CCCCC1(CCCC)CS(=O)(=O)c2ccc(N(C)C)cc2C(c2cccc(OCCOCCOCC[N+]3=C4CCCCCN4CCC3)c2)C1O (stereo not drawn) [Example 1104] the IC50 was 0.007 µM. For CCCCC1(CCCC)CS(=O)(=O)c2ccc(N(C)C)cc2C(c2cccc(O)c2)C1O (stereo not drawn) [Example 1106], the IC50 was 0.0073 µM. In the case of CCCCC1(CCCC)CS(=O)(=O)c2ccc(N(C)C)cc2C(c2cccc(C[n+]3ccccc3)c2)C1O (stereo not drawn) [Example 1107], the IC50 is reported as 0.0075 µM. Work on CCCCC1(CCCC)CS(=O)(=O)c2ccc(N(C)C)cc2C(c2cccnc2)C1O (stereo not drawn) [Example 1108] yielded an IC50 of 0.0075 µM. For CCCCC1(CCCC)CS(=O)(=O)c2ccc(N(C)C)cc2C(c2ccc(OCc3ccccn3)c(F)c2)C1O (stereo not drawn) [Example 1109], the IC50 was 0.008 µM. With CCCCC1(CCCC)CS(=O)(=O)c2ccc(N(C)C)cc2C(c2cccc(OCCOCCOCC[n+]3ccc(N4CCCC4)cc3)c2)C1O (stereo not drawn) [Example 1110] the IC50 was 0.008 µM. Work on CCCCC1(CCCC)CS(=O)(=O)c2ccc(N(C)C)cc2C(c2ccc(OCCC[n+]3ccc(CCC(=O)O)cc3)c(F)c2)C1O (stereo not drawn) [Example 1111] yielded an IC50 of 0.008 µM. CCCCC1(CCCC)CS(=O)(=O)c2ccc(N(C)C)cc2C(c2ccncc2)C1O (stereo not drawn) [Example 1112] showed an IC50 of 0.008 µM. CCCCC1(CCCC)CS(=O)(=O)c2ccc(N(C)C)cc2C(c2ccc(OCc3ccncc3)c(F)c2)C1O (stereo not drawn) [Example 1113] gave an IC50 of 0.009 µM. Molecule CCCCC1(CCCC)CS(=O)(=O)c2ccc(NC)cc2C(c2cccc(OC)c2)C1O (stereo not drawn) [Example 1114] has an IC50 of 0.009 µM. CCCCC1(CCCC)CS(=O)(=O)c2ccc(N(C)C)cc2C(c2ccc(F)cc2)C1O (stereo not drawn) [Example 1115] showed an IC50 of 0.0098 µM. Work on CCCCC1(CC)CS(=O)(=O)c2ccc(N(C)C)cc2C(c2cccc(OCCOCCOCC[N+](C)(C)C)c2)C1O (stereo not drawn) [Example 1117] yielded an IC50 of 0.01 µM. CCCCC1(CC)CS(=O)(=O)c2ccc(N(C)C)cc2C(c2ccc(O)c(F)c2)C1O (stereo not drawn) [Example 1118] gave an IC50 of 0.01 µM. CCCCC1(CCCC)CS(=O)(=O)c2ccc(N(C)C)cc2C(c2cccc(OCCOCCOCC[n+]3ccc(-c4ccccc4)cc3)c2)C1O (stereo not drawn) [Example 1119] was tested, and the IC50 was 0.01 µM. Molecule CCCCC1(CCCC)CS(=O)(=O)c2ccc(N(C)C)cc2C(c2cccc(OCCOCCOCC[N+](CC)(CC)CC(OCC)OCC)c2)C1O (stereo not drawn) [Example 1120] has an IC50 of 0.01 µM. In the case of CCCCC1(CCCC)CS(=O)(=O)c2ccc(N(C)C)cc2C(c2cccc(OCCOCCOCC[n+]3ccc(C4CC=CCC4)cc3)c2)C1O (stereo not drawn) [Example 1121], the IC50 is reported as 0.01 µM. CCCCC1(CCCC)CS(=O)(=O)c2ccc(N(C)C)cc2C(c2ccc(OCCOCC[N+](CC)(CC)CCN(CC)CC)c(F)c2)C1O (stereo not drawn) [Example 1122] gave an IC50 of 0.011 µM. With CCCCC1(CCCC)CS(=O)(=O)c2ccc(N(C)C)cc2C(c2ccccc2)C1O (stereo not drawn) [Example 1123] the IC50 was 0.011 µM. Work on CCCCC1(CCCC)CS(=O)(=O)c2ccc(N(C)C)cc2C(c2cccc(OC)c2)C1O (stereo not drawn) [Example 1124] yielded an IC50 of 0.011 µM. Molecule CCCCC1(CCCC)CS(=O)(=O)c2ccc(N(C)C)cc2C(c2ccc(OC)c(Cl)c2)C1O (stereo not drawn) [Example 1125] has an IC50 of 0.012 µM. For CCCCC1(CC)CS(=O)(=O)c2ccc(N(C)C)cc2C(c2cccc(OCCOCCOCCI)c2)C1O (stereo not drawn) [Example 1126], the IC50 was 0.013 µM. CCCCC1(CCCC)CS(=O)(=O)c2ccc(N(C)C)cc2C(c2cccc(OCCOCCOCC[n+]3ccc(CCC)cc3)c2)C1O (stereo not drawn) [Example 1127] was tested, and the IC50 was 0.013 µM. CCCCC1(CCCC)CS(=O)(=O)c2ccc(N(C)C)cc2C(c2ccc(O)c(F)c2)C1O (stereo not drawn) [Example 1128] gave an IC50 of 0.017 µM. For CCCCC1(CCCC)CS(=O)(=O)c2c(cccc2N(C)C)C(c2ccc(F)cc2)C1O (stereo not drawn) [Example 1129], the IC50 was 0.018 µM. CCCCC1(CCCC)CS(=O)(=O)c2ccc(N(C)C)cc2C(c2ccc(F)c(Cl)c2)C1O (stereo not drawn) [Example 1130] was tested, and the IC50 was 0.018 µM. Molecule CCCCC1(CC)CS(=O)(=O)c2ccc(N(C)C)cc2C(c2ccc(OC)cc2)C1O (stereo not drawn) [Example 1131] has an IC50 of 0.02 µM. Work on CCCCC1(CCCC)CS(=O)(=O)c2ccc(N(C)C)cc2C(c2cccc(OCCOCCOCC[n+]3ccc4c(c3)CCCC4)c2)C1O (stereo not drawn) [Example 1132] yielded an IC50 of 0.02 µM. For CCCCC1(CCCC)CS(=O)(=O)c2ccc(N(C)C)cc2C(c2ccc(CC#N)cc2)C1O (stereo not drawn) [Example 1133], the IC50 was 0.02 µM. In the case of CCCCC1(CC)CS(=O)(=O)c2ccc(N(C)C)cc2C(c2cccc(OCCCCOC(C)=O)c2)C1O (stereo not drawn) [Example 1134], the IC50 is reported as 0.02 µM. In the case of CCCCC1(CCCC)CS(=O)(=O)c2ccc(N(C)C)cc2C(c2ccc(OC)c(OC)c2)C1O (stereo not drawn) [Example 1135], the IC50 is reported as 0.021 µM. CCCCC1(CCCC)CS(=O)(=O)c2ccc(N(C)C)cc2C(c2cccc(OCCOCCOCCI)c2)C1O (stereo not drawn) [Example 1136] was tested, and the IC50 was 0.021 µM. CCCCC1(CCCC)CS(=O)(=O)c2c(NN(C)C)cccc2C(c2ccc(F)cc2)C1O (stereo not drawn) [Example 1137] showed an IC50 of 0.021 µM. CCCCC1(CCCC)CS(=O)(=O)c2ccc(N(C)C)cc2C(c2cccc(OCCOCCOCC[n+]3ccc(C(C)(C)C)cc3)c2)C1O (stereo not drawn) [Example 1138] showed an IC50 of 0.022 µM. Work on CCCCC1(CCCC)CS(=O)(=O)c2ccc(N(C)C)cc2C(c2ccc(F)c(F)c2)C1O (stereo not drawn) [Example 1139] yielded an IC50 of 0.022 µM. CCCCC1(CCCC)CS(=O)(=O)c2ccc(NN(C)C)cc2C(c2cccc(OC)c2)C1O (stereo not drawn) [Example 1140] was tested, and the IC50 was 0.023 µM. Molecule CCCCC1(CCCC)CS(=O)(=O)c2ccc(N(C)CC)cc2C(c2ccc(F)cc2)C1O (stereo not drawn) [Example 1141] has an IC50 of 0.023 µM. CCCCC1(CCCC)CS(=O)(=O)c2ccc(N(C)C)cc2C(c2ccc(OCCOCCSCCN(CC)CC)c(F)c2)C1O (stereo not drawn) [Example 1142] gave an IC50 of 0.024 µM. With CCCCC1(CCCC)CS(=O)(=O)c2c(cccc2N(C)C)C(c2ccc(OC)cc2)C1O (stereo not drawn) [Example 1145] the IC50 was 0.029 µM. CCCCC1(CCCC)CS(=O)(=O)c2ccc(N(C)C)cc2C(c2ccc(OCCCCCCCCCC[N+](C)(C)C)cc2)C1O (stereo not drawn) [Example 1146] showed an IC50 of 0.029 µM. CCCCC1(CCCC)CS(=O)(=O)c2ccc(N(CC)CC)cc2C(c2cccc(OC)c2)C1O (stereo not drawn) [Example 1147] showed an IC50 of 0.029 µM. CCCCC1(CCCC)CS(=O)(=O)c2ccc([S+](C)C)cc2C(c2ccc(F)cc2)C1O (stereo not drawn) [Example 1148] gave an IC50 of 0.03 µM. CCCCC1(CCCC)CS(=O)(=O)c2ccc(NCC)cc2C(c2ccc(F)cc2)C1O (stereo not drawn) [Example 1149] was tested, and the IC50 was 0.03 µM. For CCCCC1(CCCC)CS(=O)(=O)c2ccc(N(C)CC)cc2C(c2cccc(OC)c2)C1O (stereo not drawn) [Example 1150], the IC50 was 0.03 µM. Molecule CCCCC1(CCCC)CS(=O)(=O)c2ccc(N(C)COCC)cc2C(c2ccccc2)C1O (stereo not drawn) [Example 1152] has an IC50 of 0.036 µM. In the case of CCCCC1(CCCC)CS(=O)(=O)c2ccc(NC)cc2C(c2ccc(F)cc2)C1O (stereo not drawn) [Example 1153], the IC50 is reported as 0.037 µM. In the case of CCCCC1(CCCC)CS(=O)(=O)c2c(OC)cccc2C(c2cccc(OC)c2)C1O (stereo not drawn) [Example 1154], the IC50 is reported as 0.037 µM. Molecule CCCCC1(CCCC)CS(=O)(=O)c2ccc(C)cc2C(c2ccc(F)cc2)C1O (stereo not drawn) [Example 1155] has an IC50 of 0.039 µM. With CCCCC1(CCCC)CS(=O)(=O)c2ccc(SC)cc2C(c2ccc(F)cc2)C1O (stereo not drawn) [Example 1156] the IC50 was 0.039 µM. For CCCCC1(CCCC)CS(=O)(=O)c2c(cc(F)cc2N(C)C)C(c2ccc(F)cc2)C1O (stereo not drawn) [Example 1157], the IC50 was 0.04 µM. In the case of CCCCC1(CCCC)CS(=O)(=O)c2ccc(OC)cc2C(c2ccncc2)C1O (stereo not drawn) [Example 1158], the IC50 is reported as 0.06 µM. With CCCCC1(CCCC)CS(=O)(=O)c2ccc(N(CC)CC)cc2C(c2ccc(F)cc2)C1O (stereo not drawn) [Example 1160] the IC50 was 0.062 µM. Molecule CCCCC1(CCCC)CS(=O)(=O)c2ccc(N(C)C)cc2C(c2cc(Cl)c(OC)c(Cl)c2)C1O (stereo not drawn) [Example 1161] has an IC50 of 0.063 µM.
